Literature values in patent publication US20130317107A1, “Platelet-Based Methods to Detect and Monitor Treatment Benefits in Mucosal and Nervous Systems Diseases” (priority 2012, published 2013).

How the values were obtained:
[1] = tested on: collagen-stimulated platelets
[2] = relative to the stable cysteine disulfide
p38 MAP kinase = conditions: human bronchial epithelial cells
[3] = relative to cysteine
[4] = tested on: human bronchial epithelial cells
[5] = tested on: interluekin-1 beta (IL-1β)-induced eotaxin and monocyte chemotactic protein-1 (MCP-1) expression; conditions: by inhibiting activation of p38 MAP kinase
dogs = conditions: administered intravenously in dogs

Compound: CC(=O)Oc1ccccc1C(=O)O [Aspirin]
- CD40L release [1]: only partially inhibit

Compound: CC(=O)N[C@@H](CS)C(=O)O [N-acetylcysteine]
- solubility compared with cystine [2]: much more soluble
- DEP-induced p38 MAP kinase activity (p38 MAP kinase): inhibit
- stability compared with cysteine [3]: about 10 times
- DEP-induced IL-8 and RANTES production [4]: inhibited
- IL-1β-induced eotaxin and MCP-1 expression and production [5]: inhibit
- protection against pulmonary oxygen toxicity and ischemic and reperfusion damage (dogs): protect
